Biological target: T1, hAR (Homo sapiens, UniProt P10275)
T1 sequence (P10275 1-920): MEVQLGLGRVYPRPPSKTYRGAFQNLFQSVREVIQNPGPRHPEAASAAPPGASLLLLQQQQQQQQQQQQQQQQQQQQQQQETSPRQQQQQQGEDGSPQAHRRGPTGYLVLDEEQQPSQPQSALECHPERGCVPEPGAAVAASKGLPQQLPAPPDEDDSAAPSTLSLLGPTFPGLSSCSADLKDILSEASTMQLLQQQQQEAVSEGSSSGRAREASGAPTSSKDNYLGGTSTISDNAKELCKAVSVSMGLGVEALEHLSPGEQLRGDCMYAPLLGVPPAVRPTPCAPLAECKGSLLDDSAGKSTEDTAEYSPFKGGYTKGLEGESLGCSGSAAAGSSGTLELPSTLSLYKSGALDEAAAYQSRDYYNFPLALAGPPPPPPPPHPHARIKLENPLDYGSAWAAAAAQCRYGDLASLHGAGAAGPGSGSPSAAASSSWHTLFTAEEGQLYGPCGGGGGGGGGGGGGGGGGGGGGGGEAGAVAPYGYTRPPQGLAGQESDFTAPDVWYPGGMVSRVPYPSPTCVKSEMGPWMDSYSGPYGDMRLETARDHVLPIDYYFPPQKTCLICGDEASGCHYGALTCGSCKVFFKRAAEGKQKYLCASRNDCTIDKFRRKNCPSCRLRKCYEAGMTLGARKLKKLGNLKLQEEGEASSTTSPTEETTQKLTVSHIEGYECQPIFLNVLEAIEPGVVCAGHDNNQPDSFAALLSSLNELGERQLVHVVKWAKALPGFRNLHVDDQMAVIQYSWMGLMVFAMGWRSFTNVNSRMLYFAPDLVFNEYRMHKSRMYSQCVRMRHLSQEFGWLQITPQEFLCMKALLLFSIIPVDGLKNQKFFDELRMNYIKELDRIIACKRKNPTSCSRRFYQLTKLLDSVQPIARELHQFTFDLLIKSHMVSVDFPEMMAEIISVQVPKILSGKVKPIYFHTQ
Assay: Competitive binding of 3H-DHT to baculovirus/Sf9 generated hAR extracts
Conditions: IC50, concentration at which one half of maximum binding of 1 nM 3H-DHT to hAR is inhibited; one hour at 4° C.; mean of multiple tests
Experimental: The description below describes how the assay was carried out.
Competitive binding analysis was performed on baculovirus/Sf9 generated hAR extracts in the presence or absence of different concentrations of test agent and a fixed concentration of ^3H-dihydrotestosterone (^3H-DHT) as tracer. This binding assay method is a modification of a protocol previously described (Liao S., et. al. J. Steroid Biochem. 20:11-17 1984). Briefly, progressively decreasing concentrations of compounds are incubated in the presence of hAR extract (Chang et al. P.N.A.S. Vol. 89, pp. […], 1992), hydroxylapatite, and 1 nM^3H-DHT for one hour at 4° C. Subsequently, the binding reactions are washed three times to completely remove excess unbound ^3H-DHT. hAR bound ^3H-DHT levels are determined in the presence of compounds (i.e. competitive binding) and compared to levels bound when no competitor is present (i.e. maximum binding). Compound binding affinity to the hAR is expressed as the concentration of compound at which one half of the maximum binding is inhibited.

Compound	IC50 [nM]
CC1(C)CNC(=O)C1Oc1ccc(C#N)c(C(F)(F)F)c1 (single isomer, unassigned; (+)) [Example 3, (+)-4-(4,4-Dimethyl-2-oxo-pyrrolidin-3-yloxy)-2-trifluoromethyl-benzonitrile]	435
CCCN1CC(C)(C)[C@H](Oc2ccc(C#N)c(C(F)(F)F)c2)C1=O [Example 4B, (−)-4-(1-Propyl-4,4-dimethyl-2-oxo-pyrrolidin-3-yloxy)-2-trifluoromethyl-benzonitrile (E1)]	> 10000
COc1ccc(CN2CC(C)(C)C(Oc3ccc(C#N)c(C(F)(F)F)c3)C2=O)cc1 (stereo not shown) [Example 7, 4-[1-(4-Methoxy-benzyl)-4,4-dimethyl-2-oxo-pyrrolidin-3-yloxy]-2-trifluoromethyl-benzonitrile]	298
COc1ccccc1CN1CC(C)(C)C(Oc2ccc(C#N)c(C(F)(F)F)c2)C1=O (stereo not shown) [Example 10, 4-[1-(2-Methoxy-benzyl)-4,4-dimethyl-2-oxo-pyrrolidin-3-yloxy]-2-trifluoromethyl-benzonitrile]	298
CCCCCN1CC(C)(C)C(Oc2ccc(C#N)c(C(F)(F)F)c2)C1=O (stereo not shown) [Example 31, 4-(4,4-Dimethyl-2-oxo-1-pentyl-pyrrolidin-3-yloxy)-2-trifluoromethyl-benzonitrile]	268
CCC(CC)CN1CC(C)(C)C(Oc2ccc(C#N)c(C(F)(F)F)c2)C1=O (stereo not shown) [Example 33, 4-[1-(2-Ethyl-butyl)-4,4-dimethyl-2-oxo-pyrrolidin-3-yloxy]-2-trifluoromethyl-benzonitrile]	478

Same assay, conditions: concentration at which one half of maximum binding of 1 nM 3H-DHT to hAR is inhibited; one hour at 4° C.; mean of multiple tests; read-out: IC50

Compound	IC50 [nM]
CC1(C)CN(C(=O)c2ccccc2)C(=O)C1Oc1ccc(C#N)c(C(F)(F)F)c1 (racemic) [Example 97, (±) 4-{1-Benzoyl-4,4-dimethyl-2-oxo-pyrrolidin-3-yloxy)-2-trifluoromethyl benzonitrile}]	311
CCN1CC(C)(C)C(Oc2ccc(C#N)c(C(F)(F)F)c2)C1=O (stereo not shown) [Example 21, 4-(1-Ethyl-4,4-dimethyl-2-oxo-pyrrolidin-3-yloxy)-2-trifluoromethyl-benzonitrile]	403
CC1(C)CN(Cc2cccc(C(=O)O)c2)C(=O)C1Oc1ccc(C#N)c(C(F)(F)F)c1 (stereo not shown) [Example 26, 3-[3-(4-Cyano-3-trifluoromethyl-phenoxy)-4,4-dimethyl-2-oxo-pyrrolidin-1-ylmethyl]-benzoic acid]	343
CC1(C)CN(CC2CC2)C(=O)C1Oc1ccc(C#N)c(C(F)(F)F)c1 (stereo not shown) [Example 32, 4-(1-Cyclopropylmethyl-4,4-dimethyl-2-oxo-pyrrolidin-3-yloxy)-2-trifluoromethyl-benzonitrile]	420
CC1(C)CN(Cc2cccc(C(F)(F)F)c2)C(=O)C1Oc1ccc(C#N)c(C(F)(F)F)c1 (stereo not shown) [Example 34, 4-[4,4-Dimethyl-2-oxo-1-(3-trifluoromethyl-benzyl)-pyrrolidin-3-yloxy]-2-trifluoromethyl-benzonitrile]	437
CC1(C)CN(Cc2ccc(SC(F)(F)F)cc2)C(=O)C1Oc1ccc(C#N)c(C(F)(F)F)c1 (stereo not shown) [Example 36, 4-[4,4-Dimethyl-2-oxo-1-(4-trifluoromethylsulfanyl-benzyl)-pyrrolidin-3-yloxy]-2-trifluoromethyl-benzonitrile]	484
Cc1ccc(Cc2noc(CN3CC(C)(C)C(Oc4ccc(C#N)c(C(F)(F)F)c4)C3=O)n2)cc1 (stereo not shown) [Example 43, 4-{4,4-Dimethyl-1-[3-(4-methyl-benzyl)-[1,2,4]oxadiazol-5-ylmethyl]-2-oxo-pyrrolidin-3-yloxy}-2-trifluoromethyl-benzonitrile]	283
CC1(C)CN(Cc2ccc(S(C)(=O)=O)cc2)C(=O)C1Oc1ccc(C#N)c(C(F)(F)F)c1 (stereo not shown) [Example 44, 4-[1-(4-Methanesulfonyl-benzyl)-4,4-dimethyl-2-oxo-pyrrolidin-3-yloxy]-2-trifluoromethyl-benzonitrile]	346
CC1(C)CN(Cc2nc(-c3ccncc3)no2)C(=O)C1Oc1ccc(C#N)c(C(F)(F)F)c1 (stereo not shown) [Example 49, 4-[4,4-Dimethyl-2-oxo-1-(3-pyridin-4-yl-[1,2,4]oxadiazol-5-ylmethyl)-pyrrolidin-3-yloxy]-2-trifluoromethyl-benzonitrile]	214
COc1ccccc1-c1nc(CN2CC(C)(C)C(Oc3ccc(C#N)c(C(F)(F)F)c3)C2=O)no1 (stereo not shown) [Example 51, 4-{1-[5-(2-Methoxy-phenyl)-[1,2,4]oxadiazol-3-ylmethyl]-4,4-dimethyl-2-oxo-pyrrolidin-3-yloxy}-2-trifluoromethyl-benzonitrile]	321
CC1(C)CN(CC2CCCCC2)C(=O)C1Oc1ccc(C#N)c(C(F)(F)F)c1 (stereo not shown) [Example 53, 4-(1-Cyclohexylmethyl-4,4-dimethyl-2-oxo-pyrrolidin-3-yloxy)-2-trifluoromethyl-benzonitrile]	294
Cn1c(CN2CC(C)(C)C(Oc3ccc(C#N)c(C(F)(F)F)c3)C2=O)nc2ccccc21 (stereo not shown) [Example 55, 4-[4,4-Dimethyl-1-(1-methyl-1H-benzoimidazol-2-ylmethyl)-2-oxo-pyrrolidin-3-yloxy]-2-trifluoromethyl-benzonitrile]	500
COC(=O)c1ccoc1CN1CC(C)(C)C(Oc2ccc(C#N)c(C(F)(F)F)c2)C1=O (stereo not shown) [Example 58, 2-[3-(4-Cyano-3-trifluoromethyl-phenoxy)-4,4-dimethyl-2-oxo-pyrrolidin-1-ylmethyl]-furan-3-carboxylic acid methyl ester]	313
Cc1onc(-c2ccccc2)c1CN1CC(C)(C)C(Oc2ccc(C#N)c(C(F)(F)F)c2)C1=O (stereo not shown) [Example 59, 4-[4,4-Dimethyl-1-(5-methyl-3-phenyl-isoxazol-4-ylmethyl)-2-oxo-pyrrolidin-3-yloxy]-2-trifluoromethyl-benzonitrile]	277
CC1(C)CN(Cc2ccc(-n3cncn3)cc2)C(=O)C1Oc1ccc(C#N)c(C(F)(F)F)c1 (stereo not shown) [Example 62, 4-[4,4-Dimethyl-2-oxo-1-(4-[1,2,4]triazol-1-yl-benzyl)-pyrrolidin-3-yloxy]-2-trifluoromethyl-benzonitrile]	293
CC1(C)CN(Cc2nc(-c3ccc(C4SCCS4)cc3)no2)C(=O)C1Oc1ccc(C#N)c(C(F)(F)F)c1 (stereo not shown) [Example 63, 4-{1-[3-(4-[1,3]Dithiolan-2-yl-phenyl)-[1,2,4]oxadiazol-5-ylmethyl]-4,4-dimethyl-2-oxo-pyrrolidin-3-yloxy}-2-trifluoromethyl-benzonitrile]	500
CC1(C)CN(CC2CCC2)C(=O)C1Oc1ccc(C#N)c(C(F)(F)F)c1 (stereo not shown) [Example 64, 4-(1-Cyclobutylmethyl-4,4-dimethyl-2-oxo-pyrrolidin-3-yloxy)-2-trifluoromethyl-benzonitrile]	254
CC1(C)CN(Cc2nc(-c3cccc([N+](=O)[O-])c3)no2)C(=O)C1Oc1ccc(C#N)c(C(F)(F)F)c1 (stereo not shown) [Example 67, 4-{4,4-Dimethyl-1-[3-(3-nitro-phenyl)-[1,2,4]oxadiazol-5-ylmethyl]-2-oxo-pyrrolidin-3-yloxy}-2-trifluoromethyl-benzonitrile]	437
Cc1noc(C)c1S(=O)(=O)N1CC(C)(C)C(Oc2ccc(C#N)c(C(F)(F)F)c2)C1=O (stereo not shown) [Example 76, 4-[1-(3,5-Dimethyl-isoxazole-4-sulfonyl)-4,4-dimethyl-2-oxo-pyrrolidin-3-yloxy]-2-trifluoromethyl-benzonitrile]	430
